Experimental data: patent publication US20220281931A1, “CHEMICALLY INDUCIBLE POLYPEPTIDE POLYMERIZATION” (Dana-Farber Cancer Institute, Inc., priority 2019, published 2022)

Assays:
[1] = target: T1, eGFPBCL6^1-275 and V5SIAH1 (Homo sapiens, UniProt P41182); experiment: Immunofluorescence of SIAH1 and BCL6 foci in HEK293T cells; format: cell-based; conditions: HEK293TCas9 cells, 0.5 μM MLN7243 pre-treatment 2 hours, 1 μM BI-3802 1 hour
T1 construct: expressed in transfected cells; host or cells: HEK293TCas9 cells, lentiviral transduction
Experimental: HEK293TCas9 cells expressing eGFPBCL6^250 and eGFPBCL6^275 constructs were transduced with V5SIAH1^C44S (infection rate >70%). […] The cells were fixed with 4% formaldehyde for 15 min and permeabilized with 0.1% Triton X100 for 30 min. Epitopes were blocked with 10% BSA for 10 min. Anti-V5 antibodies were added and incubated on slides overnight at 4° C. After removal of the primary antibodies and washes, Alexa Fluor 633-conjugated anti-mouse antibodies were added and incubated at room temperature for 45 min. Finally, the slides were stained with DAPI (BD Biosciences, #564907, 1:5,000 in H2O) and mounted with SlowFader™ Diamond Antifade Mountant (Thermo Fisher Scientific, S36963). Cells were imaged with the Leica TCS SP5 confocal microscope.

[2] = target: T2, BCL6^5-360 - SIAH1^SBD (Homo sapiens, UniProt P41182); experiment: BCL6-SIAH1 TR-FRET; format: biochemical; conditions: preassembled 0.2 μM BodipyBCL6^5-360 and 0.2 μM BiotinSIAH1^SBD, in vitro; read-out: EC50 for increase of the BCL6-SIAH1 interaction
T2 construct: 200 nM BodipyFL-labeled BCL6^5-360 variants; His6 (N); Spy (C); made in house; host or cells: Trichoplusia ni High Five insect cells, baculovirus
Experimental: After dispensing the assay mixture (15 μL volume), increasing concentrations of compounds were dispensed in a 384-well microplate (Corning, 4514) using a D300e Digital Dispenser (HP) normalized to 1% DMSO. After excitation of terbium fluorescence at 337 nm, emission at 490 nm (terbium) and 520 nm (BodipyFL) were recorded with a 70 us delay over 600 μs to reduce background fluorescence, and the reaction was followed over 60 cycles of each data point using a PHERAstar FS microplate reader (BMG Labtech). The TR-FRET signal of each data point was extracted by calculating the 520/490 nm ratio. The half-maximal effective concentration (EC50) values were estimated using dose-response analysis standard four parameter log-logistic curves, fitted to the experimental data using […] package. […] After dispensing the assay mixture, increasing concentration of BodipyFL-BCL6^5-360 was added to the SIAH1 mixture in a […] (7.5 μL each, total 15 μL assay volume). The 520/490 nm ratios were measured in as described above and plotted to calculate the KD^APP values using dose-response analysis standard four parameter log-logistic curves using […] package.

[3] = target: T3, BCL6^5-360 (Homo sapiens, UniProt P41182); experiment: Negative stain electron microscopy of BCL6; format: biochemical; conditions: BCL6^5-360, 2 μM or 20 μM BI-3802
T3 construct: size-exclusion chromatogram of purified BCL6^5-360 in the presence of DMSO; made in house; host or cells: Trichoplusia ni High Five insect cells, baculovirus
Experimental: The incubated protein samples were rapidly diluted to 10 μg/mL (sample treated with DMSO) or 50 μg/ml (samples treated with BI-3802). A 5 μL aliquot was applied to glow-discharged 400-mesh carbon-coated nickel grids (CF400-NI-UL, Electron Microscopy Sciences). After incubating for 1 min, protein was wicked off with a filter paper and the grid was washed twice with distilled water, followed by two rounds of staining with 2% uranyl acetate for 5 s and 20 s, respectively. Grids were imaged at a nominal magnification of 40,000× on a JEOL JEM-1400Plus operated at 80 kV.

[4] = test system: lymphoma cells; conditions: cited from earlier work
[5] = test system: SuDHL4Cas9 cells; experiment: Whole proteome quantification using tandem mass tag mass spectrometry; format: cell-based, human; conditions: SuDHL4 cells, 1 μM compound, 4 hours
Experimental: 10×10^6 SuDHL4Cas9 cells were treated with DMSO, 1 μM BI-3802 or 1 μM BI-3812 for 1 h or 4 h in triplicates and cells were harvested by centrifugation. Samples were processed, measured and analyzed as previously described (Donovan, K. A. et al. Thalidomide promotes degradation of SALL4, a transcription factor implicated in Duane Radial Ray syndrome. Ehfe 7, doi:10.7554/eLife.38430 (2018)). Data are available in the PRIDE repository (PXD016185).

[6] = test system: BCL6 mRNA; experiment: Quantitative PCR of BCL6 mRNA; format: cell-based, human; conditions: SuDHL4Cas9 cells, 1 μM, 1 hour
Experimental: 1×10^6 SuDHL4Cas99 cells were treated with DMSO or 1 μM BI-3802 for 1 h, collected by centrifugation, washed with PBS, and flash frozen in dry ice. mRNA was isolated using the QIAGEN RNA kit (Qiagen, 74106). For cDNA synthesis, total RNA was reverse transcribed with SuperScript™ VILO™ Master Mix (Invitrogen, 11755050) before qPCR analysis with TaqMan Fast Advanced Master Mix (ThermoFisher Scientific, 4444557) for BCL6 (TaqMan, […], Life Technologies) and GAPDH (TaqMan, Hs02758991_g1). Reactions were run and analyzed on QStudio 6 FLX real-Time PCR System (ThermoFisher Scientific).

[7] = target: T4, BCL6^5-129 (Homo sapiens, UniProt P41182); experiment: BCL6-BCoR TR-FRET (compound binding assay); conditions: 0.1 μM FITCBCoR polypeptide, 0.1 μM BiotinBCL6^5-129
T4 construct: mixing 100 nM biotinylated BCL6^5-129, 100 nM N-terminal FITC-labeled BCoR peptide; made in house; host or cells: Trichoplusia ni High Five insect cells, baculovirus
Experimental: Competitive titration of BI-3802 or BI-3812 were carried out by mixing 100 nM biotinylated BCL6^5-129, 100 nM N-terminal FITC-labeled BCoR peptide (sequence: […]), and 2 nM terbium-coupled streptavidin in the same assay buffer. After dispensing the assay mixture (15 μL volume), increasing concentrations of compounds were dispensed in a 384-well microplate (Corning, 4514) using a D300e Digital Dispenser (HP) normalized to 1% DMSO. The 520/490 nm ratios were measured as described above and plotted to calculate the KD^APP values using dose-response analysis standard four parameter log-logistic curves using the dr4pl R package.

Compound: CNC(=O)COc1cc2cc(Nc3nc(N4C[C@H](C)C[C@H](C)C4)ncc3Cl)ccc2n(C)c1=O [BI-3802, 2-((6-((5-chloro-2-((3S,5R)-3,5-dimethylpiperidin-1-yl)pyrimidin-4-yl)amino)-1-methyl-2-oxo-1,2-dihydroquinolin-3-yl)oxy)-N-methylacetamide]
- SIAH1 colocalization to BCL6 foci [1]: SIAH1 colocalized to BCL6 foci in a V×P motif dependent manner
- EC50 [2]: 64 nM
- higher-order BCL6 structures by negative stain EM [3]: formation of regular structures with a sinusoidal shape was observed
- activity against lymphoma cells compared to BI-3812 [4]: markedly increased activity against lymphoma cells
- change in polypeptide abundance (whole proteome) [5]: BCL6 was the only polypeptide with significantly decreased abundance
- BCL6 mRNA expression [6]: did not alter BCL6 mRNA expression
- affinity of compound to BCL6 (BCoR peptide competition) [7]: comparable affinity
